Reference: US20170304223A1, “METHOD OF TREATING PROSTATE CANCER USING A PKC INHIBITOR” (priority 2016, published 2017)

Experiments:
PKC-τ = target: T1, PKC-τ (Homo sapiens, UniProt P41743); experiment: PKC-iota levels in prostate cells by Western blot after treatment; assay type: cell-based; conditions: 72 hours after treatment
T1 construct: endogenous in cells; host or cells: DU-145
T1 sequence (P41743 1-596): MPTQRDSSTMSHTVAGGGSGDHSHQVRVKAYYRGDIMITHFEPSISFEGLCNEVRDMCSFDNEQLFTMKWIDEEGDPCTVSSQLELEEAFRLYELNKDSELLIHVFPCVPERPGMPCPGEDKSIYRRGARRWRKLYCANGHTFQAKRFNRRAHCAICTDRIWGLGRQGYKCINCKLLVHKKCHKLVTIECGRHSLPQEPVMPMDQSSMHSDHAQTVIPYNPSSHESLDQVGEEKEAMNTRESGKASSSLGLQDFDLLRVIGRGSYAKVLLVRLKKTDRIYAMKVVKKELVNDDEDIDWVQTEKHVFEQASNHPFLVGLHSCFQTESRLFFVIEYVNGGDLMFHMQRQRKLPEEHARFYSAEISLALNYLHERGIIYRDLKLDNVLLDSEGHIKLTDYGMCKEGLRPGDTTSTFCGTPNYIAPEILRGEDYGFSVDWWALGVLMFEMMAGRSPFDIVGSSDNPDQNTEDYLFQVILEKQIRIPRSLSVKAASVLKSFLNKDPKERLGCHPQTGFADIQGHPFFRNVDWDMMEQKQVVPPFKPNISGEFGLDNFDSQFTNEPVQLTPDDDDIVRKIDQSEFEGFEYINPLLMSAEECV
Protocol: Protein was harvested from cultured cells using Lysis Buffer purchased from Cell Signaling. Protein content was measured according to the Bradford method. Tissue extracts containing equal amounts of protein in each lane were run on SDS-PAGE gels. The tissue lysates (50 μg) were Western blotted for PKC-τ (10 μg, 1:2500 dilution): and PKC-ζ (5 μg, 1:4000 dilution) and β-actin (10 μg, 1:3000 dilution).
(§1) Western blots were developed on the Protein Simple Flour Chem M. Accompanied by the Alpha view software for analysis.
ICA-1 was used as a PKC-iota inhibitor. […] The cells were counted before and after the treatments and a statistical analysis was performed. Following cell counting, the cells were lysed and levels of PKC-iota and PKC-zeta were measured by Western blotting and immunoprecipitation.

PC-3 cells = experiment: Cell proliferation assay / cell counting, PC-3 cells; assay type: cell-based, human
Protocol: (§2) RWPE epithelial cells and DU-145 human prostate carcinoma cells were purchased from American Type Culture Collection (ATCC). PC-3 cells were acquired from Moffit Cancer center. The cells were grown as a monolayer in a T25 tissue culture flask with 5 mL of growth medium and maintained in a 37 C incubator with 5% CO2. The E-MEM and F-12 growth media were obtained from ATCC. The medium was supplemented with 10% fetal bovine serum (FBS) and a mix of the antibiotics Penicillin (10,000 IU) and Streptomycin (10,000 μg/ml) in a 100× concentration which was purchased from Corning.
(§3) RWPE, DU 145 and PC-3 cells were cultured in a T25 cell culture flasks. 20,000 cells were seeded into each. […] The treatment was repeated over the course of 72 hours and samples were taken at 24 hour intervals.
(§4) RWPE, DU 145, and PC-3 cells were cultured in a T25 cell culture flasks. At assigned intervals the cells were trypsonized and put into a 1.5 mL microcentrifuge tube. Cells were inverted gently to keep the solution homogeneous and then the Cell Scepter by Millipore was used to measure cell numbers.

Survivin = experiment: Apoptotic marker Survivin by Western blot; assay type: cell-based, human
DU-145 cells = experiment: Cell proliferation assay / cell counting, DU-145 cells; assay type: cell-based, human
Protocol: as §2, §3, §4

Cytochrome C = experiment: Apoptotic marker Cytochrome C by Western blot; assay type: cell-based, human
NF-kB = NF-kB translocation after TNF-α exposure (cell subfractionation); assay type: cell-based, human; conditions: DU-145 and PC-3 cells (cell line not specified), 10 μM, vs untreated control
Protocol: 20,000 cells were seeded into each.
as §1

RWPE cells = experiment: Cell proliferation assay / cell counting, RWPE cells; assay type: cell-based, human; conditions: 10 μM, non-malignant cells (RWPE)
Protocol: as §2, §3, §4

[1] = DU-145 cells, 72 hours of treatment
[2] = RWPE cells, 72 hours of treatment

SMILES: NC(=O)c1ncn([C@H]2C[C@@H](COP(=O)(O)O)[C@H](O)[C@@H]2O)c1N [ICA-1]
- average decrease in PKC-τ (PKC-τ; DU-145 cells): 46%
- decrease in PKC-τ (PKC-τ; PC-3 cells): 40%
- average decline of cell population (PC-3 cells): 18%
- reduction of Survivin (in words) (Survivin; [1]): reduction of Survivin by half
- decrease in Survivin (Survivin; PC-3 cells): 40%
- decrease in Survivin (Survivin; [2]): 10%
- decrease in cell population (dose-response curve) (DU-145 cells; 10 μM, malignant cells (DU-145)): statistically significant decrease in population
- reduction in cell growth compared to untreated cells (DU-145 cells; DU-145 cells): 19%
- increase in Cytochrome C (Cytochrome C; [1]): ~3 fold
- increase in Cytochrome C (Cytochrome C; PC-3 cells): 2 fold
- increase of Cytochrome C (Cytochrome C; [2]): 8%
- decrease of nucleic NFkB (NF-kB): 5 fold
- decrease in cell population (dose-response curve) (RWPE cells): not having a significant decrease
